Laboratory results taken from publication PMC9637222, “Autoinducer-2 and bile salts induce c-di-GMP synthesis to repress the T3SS via a T3SS chaperone” (Nature Communications, 2022).
“And” between values parts separate entries of the source, which are not always exact repeats. Equal entries are not always repeated. Where two headings read alike, the source gives them in different places.

Columns and labels:
PcrH (WP_003113548) = PcrH (WP_003113548) (Pseudomonas aeruginosa, UniProt Q9I325); format: binding; details: for Kd: ITC
PcrH (WP_003113548), sequence (Q9I325 1-167): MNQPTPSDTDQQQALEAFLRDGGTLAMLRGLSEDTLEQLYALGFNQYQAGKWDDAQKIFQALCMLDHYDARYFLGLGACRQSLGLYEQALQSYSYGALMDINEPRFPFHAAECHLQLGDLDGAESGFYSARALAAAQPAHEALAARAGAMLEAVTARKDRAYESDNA

SicA = molecular target: T1, SicA (Salmonella typhimurium, UniProt P69066); assay: ITC: nucleotide (c-di-GMP, c-di-AMP, cGMP) binding to SicA; parameters: species or system S. Typhimurium
T1 construct: His6 (N, cleaved yes); made in house; host or cells: E. coli BL21(DE3), pET-28a (pET28a-sicA)
T1 sequence (P69066 whole entry): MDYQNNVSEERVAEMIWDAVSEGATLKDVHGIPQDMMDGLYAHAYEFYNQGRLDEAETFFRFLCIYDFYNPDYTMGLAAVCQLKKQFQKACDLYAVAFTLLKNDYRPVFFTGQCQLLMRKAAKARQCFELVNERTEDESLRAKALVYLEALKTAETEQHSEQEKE

SicA Q34A = molecular target: T2, SicA Q34A (Salmonella typhimurium, UniProt P69066, Q34A); format: binding, S. Typhimurium
T2 construct: His6 (N, cleaved yes); made in house; host or cells: E. coli BL21(DE3), pET-28a (pET28a-sicAQ34A)
T2 sequence (P69066 whole entry Q34A): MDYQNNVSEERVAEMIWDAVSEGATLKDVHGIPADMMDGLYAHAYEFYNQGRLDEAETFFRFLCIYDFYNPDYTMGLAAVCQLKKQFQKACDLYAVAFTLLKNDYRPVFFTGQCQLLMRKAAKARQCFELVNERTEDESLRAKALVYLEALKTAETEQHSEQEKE

VcrH (WP_005464462) = molecular target: T3, VcrH (WP_005464462) (Vibrio parahaemolyticus, UniProt Q87P60); format: binding; details: for Kd: ITC
T3 sequence (Q87P60 1-162): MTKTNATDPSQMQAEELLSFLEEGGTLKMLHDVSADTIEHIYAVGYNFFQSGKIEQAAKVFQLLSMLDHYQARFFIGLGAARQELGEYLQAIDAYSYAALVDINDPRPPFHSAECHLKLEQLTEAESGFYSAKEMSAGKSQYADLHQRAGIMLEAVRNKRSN

[1] = range given for all 6 chaperones (PcrH, IpgC, SycD, CesD, BicA, VcrH), read-out: Kd
[2] = individual experiments, source data Fig. 5a

Nc1nc2c(ncn2C2OC3COP(=O)(O)OC4C(COP(=O)(O)OC3C2O)OC(n2cnc3c(=O)[nH]c(N)nc32)C4O)c(=O)[nH]1 (centres unmarked) [c-di-GMP, Cyclic di-GMP] was tested. Which “n, c-di-GMP binding to PcrH” value (PcrH (WP_003113548); ITC binding stoichiometry n, individual replicates, Supplementary Figure 22a) did it give?
The value was 1.15 and 1.14 and 1.18.

And the Kd (PcrH (WP_003113548); individual replicates, Supplementary Figure 22a, read-out: Kd, c-di-GMP binding to PcrH)?
The Kd was 130 nM and 190 nM.

And the Kd (PcrH (WP_003113548); [1])?
Its Kd is 150 to 220 nM.

What about the Kd (SicA; c-di-GMP : SicA WT, mean ± s.d. of three independent experiments) of the same molecule?
The Kd was 210 ± 90 nM.

And the Kd (SicA; [2])?
The Kd was 320 nM and 100 nM.

And the “n (complex stoichiometry)” value (SicA; [2])?
The value was 1.14 and 1.11 and 1.21.

What about the “n, c-di-GMP binding to SicAQ34A” value (SicA Q34A; ITC binding stoichiometry n, individual replicates, Supplementary Figure 17c) of the same molecule?
The value was 1.05 and 1.09.

And the Kd (SicA Q34A; binding to SicA Q34A)?
Its Kd is 15000 nM and 12000 nM and 14000 nM.

What about the “n, c-di-GMP binding to VcrH” value (VcrH (WP_005464462); ITC binding stoichiometry n, individual replicates, Supplementary Figure 22f) of the same molecule?
The value was 1.12 and 1.10.

What about the Kd (VcrH (WP_005464462); individual replicates, Supplementary Figure 22f, read-out: Kd, c-di-GMP binding to VcrH) of the same molecule?
Its Kd is 140 nM and 160 nM.

What about the Kd (VcrH (WP_005464462); [1]) of the same molecule?
The Kd was 150 to 220 nM.
